Laboratory results: patent publication US6541488B1, “Compositions for treating arterial thrombosis and a factor Xa inhibitor” (Sanofi-Synthelabo, priority 1997, dated 2003)
Read-outs that look alike come from different tables or passages of the source.

What was measured:
arterial thrombosis = assay: Arterial thrombosis induced by electrical stimulation of the left common carotid in rabbits, blood flow rate measured; format: in vivo; settings: rabbit; for effect on reduction in carotid blood flow rate: 45 min observation
Procedure: New Zealand male rabbits weighing 2.7 to 3 kg, obtained from the Lago breeding unit (France) were used. They were housed under standard conditions.
The formation of the thrombus was induced by external electrical stimulation of the left common carotid according to the Hladovec I. et al. method (Experimental arterial thrombosis in rats with continuous registration, Throm. Diathes. Haemor. 1971; 26: 407-410). The rabbits were anaesthetized with pentobarbital at the dose of 30 mg/kg iv. A segment of the left carotid artery was exposed and insulated by a piece of insulating film. Electrodes were inserted under the artery. A partial stricture inducing a 20% reduction in flow rate was made in the artery. The latter was then stimulated with the aid of a 2.5 mA current delivered by a constant current stimulator for 3 minutes. The thrombotic occlusion was evaluated by continuous measurement of the flow rate of blood in the carotid by means of an NARCO electromagnetic flow meter. This measurement was made over an observation period of 45 minutes.
For the treatment, solutions of SR 90107/ORG 31540 and of SR 121787A were prepared immediately before use in a saline solution. The solutions of SR 90107/ORG 31540 were injected by the IV route 5 minutes before induction of thrombosis in a volume of 1 ml/kg. SR 121787A was dadministered by the oral route 2 hours earlier.
The results were calculated and expressed as % reduction in blood flow rate at various times relative to time 0. They are grouped together in FIG. 1.

induced thromboses [1] = settings: rats; i.v. and s.c. administration; cited from earlier work
platelet aggregation = assay: Platelet aggregation induced by ADP or collagen; format: cell-based
human plasma = assay: Activated partial thromboplastin time (APTT) test on human plasma
activated factor X (Xa) = assay: Neutralization of activated factor X (Xa) by antithrombin III; format: biochemical
thrombin = thrombin (Homo sapiens, UniProt P00734); assay: Activity on thrombin; format: biochemical
[2] = rats, cited from earlier work
[3] = Toxicity studies with repeated assays; settings: any animal species; repeated assays over 4 weeks with up to 10 mg/kg subcutaneously
induced thromboses [4] = settings: rats; i.v. and s.c. administration; cited from earlier work; remark: listed apart in the source
induced thromboses [5] = settings: rabbits; i.v. and s.c. administration; cited from earlier work

CCOC(=O)CCN(c1nc(-c2ccc(/C(N)=N/C(=O)OCC)cc2)cs1)C1CCN(CC(=O)OCC)CC1 [SR 121787A, ethyl N-(1-ethoxycarbonylmethylpiperidin-4-yl)-N-{4-[4-{(N-ethoxycarbonylimino)(amino)methyl}phenyl]thiazol-2-yl}-3-aminopropionate]
effect on course of the carotid output (arterial thrombosis; oral dose 10 mg/kg 2 hours before, sole active ingredient): did not significantly modify
effect on drop of the carotid output (arterial thrombosis; oral dose 20 mg/kg 2 hours before, sole active ingredient): almost completely inhibited

methyl O-(2-deoxy-2-sulphoamino-6-O-sulfo-α-D-glucopyranosyl)-(1→)-O-(β-D-glucopyranosyluronic acid)-(1→4)-O-(2-deoxy-2-sulphoamino-3,6-di-O-sulpho-α-D-glucopyranosyl-(1→4)-O-(2-O-sulpho-Ε-L-idopyranosyl-uronic acid)-(1→4)-2-deoxy-2-sulphoamino-6-O-sulpho-α-D-glucopyranoside [SR 90107/ORG 31540]
antithrombotic effects (induced thromboses [1]): demonstrated
potentiation of platelet aggregation induced by ADP (platelet aggregation; ADP): does not potentiate
potentiation of platelet aggregation induced by collagen (platelet aggregation; collagen): does not potentiate
modification of activated partial thromboplastin time (APTT) (human plasma): hardly modifies
catalysis of neutralization of factor Xa by antithrombin III (activated factor X (Xa)): can be catalysed
mutagenicity in the AMES test (AMES test): not mutagenic
effect on reduction in carotid blood flow rate (arterial thrombosis; 300 nmol/kg IV 5 minutes before induction of thrombosis): no influence
effect on reduction in carotid blood flow rate (arterial thrombosis; 600 nmol/kg IV 5 minutes before induction of thrombosis): reduced it slightly but not significantly
activity on thrombin (thrombin): completely devoid
loss of blood ([2]; 21.7 mg/kg (high dose)): identical to that observed with 200 units anti-Xa/kg of heparin
increase of blood loss compared with standard heparin or LMWHs [2]: only slightly increases blood loss
toxicological effect [3]: No toxicological effect
antithrombotic effects (induced thromboses [4]): demonstrated
mutagenicity in the DNA repair test (DNA repair test): not mutagenic
antithrombotic effects (induced thromboses [5]): demonstrated
